Experimental data: the NIST ThermoML archive (doi:10.1021/je101206u)

Assay: xn = mol fraction of the nth substance listed
Conditions: 101 kPa, Liquid

OCCO [1,2-ethanediol] + CCCCn1cc[n+](C)c1.F[B-](F)(F)F
x2 = 0
Conditions | mass density [kg/m3] | viscosity [mPa·s]
293.15 K | 1113.45 | 21.44
303.15 K | 1106.45 | 14.33
313.15 K | 1099.38 | 10.01
323.15 K | 1092.24 | 7.121
333.15 K | 1085 | 5.33
343.15 K | 1077.65 | 4.103
353.15 K | 1070.17 | 3.242

CCCCn1cc[n+](C)c1.F[B-](F)(F)F [1-butyl-3-methylimidazolium tetrafluoroborate] + C[S+](C)[O-]
Conditions | mass density [kg/m3] | viscosity [mPa·s]
293.15 K, x1 = 0.0722 | 1120.91 | 3.514
293.15 K, x1 = 0.1764 | 1142.23 | 6.283
293.15 K, x1 = 0.2145 | 1148.47 | 7.911
293.15 K, x1 = 0.3225 | 1162.89 | 13.46
293.15 K, x1 = 0.4189 | 1172.83 | 20.76
293.15 K, x1 = 0.607 | 1186.94 | 42.17
293.15 K, x1 = 0.6557 | 1188.45 | 48.88
293.15 K, x1 = 0.8283 | 1197.44 | 83.33
293.15 K, x1 = 0.9155 | 1201.03 | 107.2
293.15 K, x1 = 1 | 1204.44 | 136.9
298.15 K, x1 = 0.0722 | 1116.22 | –
298.15 K, x1 = 0.1764 | 1137.84 | –
298.15 K, x1 = 0.2145 | 1144.16 | –
298.15 K, x1 = 0.3225 | 1158.77 | –
298.15 K, x1 = 0.4189 | 1168.84 | –
298.15 K, x1 = 0.607 | 1182.57 | –
298.15 K, x1 = 0.6557 | 1185.38 | –
298.15 K, x1 = 0.8283 | 1193.78 | –
298.15 K, x1 = 0.9155 | 1197.43 | –
298.15 K, x1 = 1 | 1200.89 | –
303.15 K, x1 = 0.0722 | 1111.54 | 2.827
303.15 K, x1 = 0.1764 | 1133.45 | 4.839
303.15 K, x1 = 0.2145 | 1139.87 | 5.968
303.15 K, x1 = 0.3225 | 1154.66 | 9.732
303.15 K, x1 = 0.4189 | 1164.85 | 14.46
303.15 K, x1 = 0.607 | 1179.32 | 27.68
303.15 K, x1 = 0.6557 | 1181 | 31.52
303.15 K, x1 = 0.8283 | 1190.12 | 51.43
303.15 K, x1 = 0.9155 | 1193.83 | 64.87
303.15 K, x1 = 1 | 1197.34 | 81.4
313.15 K, x1 = 0.0722 | 1102.21 | 2.324
313.15 K, x1 = 0.1764 | 1124.71 | 3.845
313.15 K, x1 = 0.2145 | 1131.31 | 4.668
313.15 K, x1 = 0.3225 | 1146.47 | 7.347
313.15 K, x1 = 0.4189 | 1156.91 | 10.58
313.15 K, x1 = 0.607 | 1171.76 | 19.29
313.15 K, x1 = 0.6557 | 1173.63 | 21.66
313.15 K, x1 = 0.8283 | 1182.84 | 33.94
313.15 K, x1 = 0.9155 | 1186.65 | 42.14
313.15 K, x1 = 1 | 1190.27 | 51.79
323.15 K, x1 = 0.0722 | 1092.89 | 1.951
323.15 K, x1 = 0.1764 | 1116.01 | 3.137
323.15 K, x1 = 0.2145 | 1122.79 | 3.767
323.15 K, x1 = 0.3225 | 1138.33 | 5.742
323.15 K, x1 = 0.4189 | 1149.02 | 8.052
323.15 K, x1 = 0.607 | 1164.25 | 14.12
323.15 K, x1 = 0.6557 | 1166.3 | 15.79
323.15 K, x1 = 0.8283 | 1175.62 | 25.01
323.15 K, x1 = 0.9155 | 1179.53 | 29.99
323.15 K, x1 = 1 | 1183.24 | 38.04
333.15 K, x1 = 0.0722 | 1083.58 | 1.668
333.15 K, x1 = 0.1764 | 1107.34 | 2.615
333.15 K, x1 = 0.2145 | 1114.3 | 3.118
333.15 K, x1 = 0.3225 | 1130.22 | 4.618
333.15 K, x1 = 0.4189 | 1141.18 | 6.327
333.15 K, x1 = 0.607 | 1156.79 | 10.69
333.15 K, x1 = 0.6557 | 1158.97 | 11.78
333.15 K, x1 = 0.8283 | 1168.44 | 17.38
333.15 K, x1 = 0.9155 | 1172.45 | 20.96
333.15 K, x1 = 1 | 1176.25 | 24.97
343.15 K, x1 = 0.0722 | 1074.29 | 1.447
343.15 K, x1 = 0.1764 | 1098.7 | 2.222
343.15 K, x1 = 0.2145 | 1105.83 | 2.638
343.15 K, x1 = 0.3225 | 1122.16 | 3.801
343.15 K, x1 = 0.4189 | 1133.38 | 5.104
343.15 K, x1 = 0.607 | 1149.37 | 8.359
343.15 K, x1 = 0.6557 | 1151.6 | 8.977
343.15 K, x1 = 0.8283 | 1161.32 | 13.21
343.15 K, x1 = 0.9155 | 1165.43 | 15.78
343.15 K, x1 = 1 | 1169.32 | 18.49
353.15 K, x1 = 0.0722 | 1064.99 | 1.272
353.15 K, x1 = 0.1764 | 1090.08 | 1.918
353.15 K, x1 = 0.2145 | 1097.39 | 2.278
353.15 K, x1 = 0.3225 | 1114.12 | 3.195
353.15 K, x1 = 0.4189 | 1125.62 | 4.21
353.15 K, x1 = 0.607 | 1141.99 | 6.702
353.15 K, x1 = 0.6557 | 1144.28 | 7.182
353.15 K, x1 = 0.8283 | 1154.24 | 10.34
353.15 K, x1 = 0.9155 | 1158.44 | 12.24
353.15 K, x1 = 1 | 1162.44 | 14.37

CCCCn1cc[n+](C)c1.F[B-](F)(F)F [1-butyl-3-methylimidazolium tetrafluoroborate] + OCCO
Conditions | mass density [kg/m3] | viscosity [mPa·s]
293.15 K, x1 = 0.0895 | 1133.64 | 19.89
293.15 K, x1 = 0.1758 | 1147.86 | 19.29
293.15 K, x1 = 0.3578 | 1167.8 | 23.44
293.15 K, x1 = 0.4397 | 1174.28 | 23.39
293.15 K, x1 = 0.6482 | 1187.63 | 39.69
293.15 K, x1 = 0.8121 | 1196.19 | 68.29
293.15 K, x1 = 1 | 1204.44 | 136.9
298.15 K, x1 = 0.0895 | 1129.95 | –
298.15 K, x1 = 0.1758 | 1144.07 | –
298.15 K, x1 = 0.3578 | 1163.96 | –
298.15 K, x1 = 0.4397 | 1170.46 | –
298.15 K, x1 = 0.6482 | 1183.91 | –
298.15 K, x1 = 0.8121 | 1192.56 | –
298.15 K, x1 = 1 | 1200.89 | –
303.15 K, x1 = 0.0895 | 1126.26 | 12.66
303.15 K, x1 = 0.1758 | 1140.28 | 12.72
303.15 K, x1 = 0.3578 | 1160.12 | 15.48
303.15 K, x1 = 0.4397 | 1166.64 | 17.5
303.15 K, x1 = 0.6482 | 1180.21 | 26.17
303.15 K, x1 = 0.8121 | 1188.95 | 41.88
303.15 K, x1 = 1 | 1197.34 | 81.4
313.15 K, x1 = 0.0895 | 1118.86 | 8.881
313.15 K, x1 = 0.1758 | 1132.71 | 8.902
313.15 K, x1 = 0.3578 | 1152.49 | 10.87
313.15 K, x1 = 0.4397 | 1159.07 | 12.33
313.15 K, x1 = 0.6482 | 1172.85 | 18.29
313.15 K, x1 = 0.8121 | 1181.74 | 28.17
313.15 K, x1 = 1 | 1190.27 | 51.79
323.15 K, x1 = 0.0895 | 1111.43 | 6.422
323.15 K, x1 = 0.1758 | 1125.13 | 6.528
323.15 K, x1 = 0.3578 | 1144.89 | 8.034
323.15 K, x1 = 0.4397 | 1151.54 | 9.112
323.15 K, x1 = 0.6482 | 1165.56 | 13.41
323.15 K, x1 = 0.8121 | 1174.6 | 20.62
323.15 K, x1 = 1 | 1183.24 | 35.23
333.15 K, x1 = 0.0895 | 1103.95 | 4.88
333.15 K, x1 = 0.1758 | 1117.55 | 4.971
333.15 K, x1 = 0.3578 | 1137.35 | 6.16
333.15 K, x1 = 0.4397 | 1144.07 | 7.005
333.15 K, x1 = 0.6482 | 1158.32 | 10.2
333.15 K, x1 = 0.8121 | 1167.55 | 14.84
333.15 K, x1 = 1 | 1176.25 | 24.97
343.15 K, x1 = 0.0895 | 1096.42 | 3.807
343.15 K, x1 = 0.1758 | 1109.96 | 3.909
343.15 K, x1 = 0.3578 | 1129.84 | 4.87
343.15 K, x1 = 0.4397 | 1136.64 | 5.552
343.15 K, x1 = 0.6482 | 1151.14 | 8.019
343.15 K, x1 = 0.8121 | 1160.56 | 11.41
343.15 K, x1 = 1 | 1169.32 | 18.49
353.15 K, x1 = 0.0895 | 1088.83 | 2.872
353.15 K, x1 = 0.1758 | 1102.35 | 3.163
353.15 K, x1 = 0.3578 | 1122.35 | 3.932
353.15 K, x1 = 0.4397 | 1129.25 | 5.153
353.15 K, x1 = 0.6482 | 1144 | 6.479
353.15 K, x1 = 0.8121 | 1153.54 | 8.692
353.15 K, x1 = 1 | 1162.44 | 14.37

C[S+](C)[O-] [dimethyl sulfoxide] + CCCCn1cc[n+](C)c1.F[B-](F)(F)F
x2 = 0
Conditions | mass density [kg/m3] | viscosity [mPa·s]
293.15 K | 1100.76 | 2.21
298.15 K | 1095.74 | –
303.15 K | 1090.73 | 1.843
313.15 K | 1080.69 | 1.556
323.15 K | 1070.66 | 1.337
333.15 K | 1060.63 | 1.165
343.15 K | 1050.58 | 1.028
353.15 K | 1040.51 | 0.917
